For experiment [1], the target named is T1, NAC peptide (Homo sapiens, UniProt P37840).
T1 construct: a 35 amino acid peptide corresponding to residues 61 to 95 of the α-synuclein protein; made in house; host or cells: chemical solid-phase peptide synthesis (Fmoc), not expressed
Briefly: Electron microscopy (EM) analysis of NAC fiber formation in the fibrillogenesis assay. The format is biochemical. The following applies: for EM Score: amount of fibers compared to NAC alone (100% fibers), 10 frames of a 300-mesh grid. As to the method:
(§1) Fibrillogenesis assays were employed to identify test compounds that inhibit NAC's ability to assemble into fibers. Following removal of HFIP by evaporation under N2 gas, 20 μM NAC peptide is incubated in the assay buffer (0.02M Tris, 0.15 M NaCl, 0.005% NaN3, 100 uM EDTA) at 37° C. in a Perkin-Elmer HTS 7000 plus microplate reader with shaking for 1 minute every twenty minutes. The presence of fibers can be monitored by three different methods.
(§2) The following assays were set up in clear polystyrene 96 well microplates by combining 125 μL of 40 μM NAC peptide with 125 μL of 200 μM test compound in 0.02M Tris, 0.15 M NaCl, 0.005% NaN3, […]. The microplates were sealed with a plastic sheet and incubated at 37° C. in a Perkin-Elmer HTS 7000 microplate reader with shaking for 1 minute, every 20 minutes. • Thioflavin T Analysis. To perform this assay 5 μM Thioflavin T is added to the NAC assembly conditions described above. The fluorescence is measured at 430 excitation/485 emission every twenty minutes with a Perkin-Elmer HTS microplate reader for the duration of the assay. […] This assay allows for the identification of compounds that can inhibit this increase in fluorescence upon incubation. • Turbidity Analysis. Alternatively, NAC peptide that has been incubated with test compounds in the appropriate assembly conditions can be analyzed by reading the absorbance at 405 nm to follow the turbidity of the solution which is also an indication of the formation of aggregates. • Circular Dichroism (CD) Analysis. […] This assay allows for the identification of compounds that can prevent NAC from adopting a β-sheet/β-turn conformation upon incubation. • At the appropriate time point, during the incubation, the test solutions were transferred to 0.1-cm path length quartz cuvettes and scanned by CD spectroscopy between 190 and 260 nm, with a resolution of 0.1 nm and a bandwidth of 1 nm using a Jasco J-715 spectropolarimeter at 37° C. […] At the time point at which CD scans are performed a 3 μl aliquot is removed from the sample, spotted onto a Formvar grid and then negatively stained with 4% uranyl acetate. The grids were examined for the presence of fibrils and amorphous aggregates using a JOEL 2000 transmission electron microscope at a 25,000 × magnification. This assay can be used to confirm the absence of fibers in the presence of compounds which inhibit NAC assembly by ThT and CD. The final results were obtained by averaging 10 complete sectors.
Analysis by Electron Microscopy: The fibrillogenesis assays performed for CD analysis were also spotted for EM. The electron micrographs are visually examined and a score is assigned as follows. Briefly, 10 representative frames from a 300-mesh grid are analyzed and given a score representing the amount of fibers formed in the sample as compared to a micrograph with NAC alone without a test compound (100% fibers). A score was assigned based on this analysis on a scale from 0% to 100% fibers: (−) indicates an observation of less than about 25% fibers; (+) indicates about 25% fibers; (++) about 50% fibers; (+++) indicates about 75% fibers; and (++++) 100% fibers. […]

Experiment [2] addresses T1, NAC peptide. As to the kind of experiment: Circular dichroism (CD) analysis of NAC peptide conformation after incubation with test compounds (fibrillogenesis assay). The format is biochemical. Also on record: key to CD Result (NAC conformation observed): Random Coil: signifies that the NAC in the sample was observed to have been maintained in its original random coil conformation indicating that the compound coincubated with NAC is active; signifies that the compound was not able to prevent the shift from random coil to β-sheet; β-sheet/β-turn: signifies that the compound was not able to prevent the shift from random coil to β-sheet; Transition: signifies that the NAC was observed to be in the process of converting from random coil to β-sheet indicating that the compound was able to slow down the conformational change and indicates activity. The following applies: for CD Result (NAC conformation observed): 125 μL of 40 μM NAC peptide with 125 μL of 200 μM test compound, pH 7.4, 37° C., conformations over repeated trials; for Activity (CD): active if it prevents the transition to β-turn/β-sheet in 50% or more of the trials; for Activity: active trials / trials: number of CD trials in which transition to β-turn/β-sheet was prevented, over trials run. As to the method: 2 mM Solutions were prepared in TBSA buffer (Tris 0.02 M, NaCl 0.15 M, NaN3 0.005%, pH 7.4) and stored at 4° C. For the assays, compounds were diluted to the desired concentrations in TBSAE buffer (Tris 0.02 M, NaCl 0.15 M, NaN3 0.005%, EDTA 100 μM, pH 7.4) and combined with the NAC peptides.
as §1, §2
For compounds that have been tested multiple times, a compound is classified as active if it prevents the transition to β-turn/β-sheet in 50% or more of the trials.
For orientation: Circular dichroism is widely used to follow secondary structure.

For experiment [3], the target named is T1, NAC peptide. As to the kind of experiment: Binding of compounds to NAC peptide by electrospray mass spectrometry. The following applies: area of bound NAC-compound complex peaks divided by area of unbound NAC peaks; 5:1 compound:NAC, pH 7.4, 6.6% EtOH. The protocol: The ability of the compounds of the present invention to bind to NAC peptide in aqueous solution was evaluated. The binding ability correlates to the intensities of the peptide-compound complex peaks observed by the Electrospray Mass Spectrum. Millipore distilled deionized water was used to prepare all aqueous solutions. For pH determination a Beckman (Φ36 pH meter fitted with a Corning Semi-Micro Combination pH Electrode was employed.
The optimal cone voltage was determined to be 20V.
Mass spectrometry: Mass spectrometric analysis was performed using a Waters ZQ 4000 mass spectrometer equipped with a Waters 2795 sample manager. MassLynx 4.0 (earlier by MassLynx 3.5) was used for data processing and analysis. Test compounds were mixed with disaggregated peptides in aqueous media (6.6% EtOH) at a 5:1 ratio (20 μM NAC: 100 μM of test compound or 40 μM NAC : 200 μM of test compound). The pH of the mixture was adjusted to 7.4 (±0.2) using 0.1% NaOH (3-5 μL). Periodically, NAC peptide solution at 20 μM or 40 μM was also prepared in the same fashion and run as control. The spectra were obtained by introducing the solutions to the electrospray source by direct infusion using a syringe pump at a flow rate of 25 μl/min, and scanning from 100 to 2100 Da in the positive mode. The scan time was 0.9 sec per scan with an inter-scan delay of 0.1 sec and the run time was 5 min for each sample. All the mass spectra were sum of 300 scans. The desolvation and source temperature was 70° C. and the cone and capillary voltage were maintained at 20 V and 3.2 kV respectively.
The total area under the peaks for the bound NAC-compound complex divided by total area under the peaks for unbound NAC was determined for each compound tested.

`O=S(=O)(O)CCC[N+]12CCC(CC1)CC2` [drawing 65]: on NAC peptide [1], the “Activity (EM)” value is “Yes” and the “EM Score” value was “+ ((+) indicates about 25% fibers)”.

As for `O=S(=O)(O)CCCN1CCc2c([nH]c3ccccc23)C1` [compound 13], at NAC peptide [2], the “CD Result (NAC conformation observed)” value is given as “Random coil Transition”, the “Activity (CD)” value is given as “Yes” and the “Activity: active trials / trials” value is 3/3. The “Binding Strength” value at NAC peptide [3] is “+++ (Strong; when the total binding is 120% and higher)”.

With `CCCCCCCCCCCCCCCCS(C)(C)CCCS(=O)(=O)O` [compound 11], on NAC peptide [2], the “CD Result (NAC conformation observed)” value was “Random Coil”, the “Activity (CD)” value is given as “Coil” and the “Activity: active trials / trials” value was 4/4. On NAC peptide [3], the “Binding Strength” value is “++ (Moderate; when the total binding is between 120% and 70%)”.

Regarding `CC[N+](CC)(CC)CCCS(=O)(=O)[O-]` [drawing 62], at NAC peptide [1], the “Activity (EM)” value is “Yes” and the “EM Score” value was “AA+”.

Regarding `CC(=O)C1(c2ccccc2)CCN(CCCS(=O)(=O)O)CC1` [compound 15], on NAC peptide [2], the “CD Result (NAC conformation observed)” value is on record as “β-sheet/β- turn Random Coil”, the “Activity (CD)” value is on record as “No” and the “Activity: active trials / trials” value is reported as “¼”. At NAC peptide [3], the “Binding Strength” value is “+++ (Strong; when the total binding is 120% and higher)”.

Take `NCCS(=O)(=O)O` [compound 5]: on NAC peptide [2], the “CD Result (NAC conformation observed)” value is listed as “β-sheet”, the “Activity (CD)” value is reported as “No” and the “Activity: active trials / trials” value was 0/2. Moreover, at NAC peptide [3], the “Binding Strength” value was “+ (Weak; when the total binding is between 70% and 30%)”.

Consider `NCCCCS(=O)(=O)O` [drawing 63], for which, at NAC peptide [1], the “Activity (EM)” value is “Yes” and the “EM Score” value is reported as “AA+”.

As for `CCCCCCCCCCCCS(C)(C)CCCS(C)(=O)=O` [compound 9], on NAC peptide [2], the “CD Result (NAC conformation observed)” value is “Random Coil”, the “Activity (CD)” value was “Yes” and the “Activity: active trials / trials” value is recorded as 4/4. On NAC peptide [3], the “Binding Strength” value is “− (None; when the total binding is between 30% and 0%)”.

As to `CC[N+](CC)(CC)CCCS(=O)(=O)[O-]` [compound 16], at NAC peptide [2], the “CD Result (NAC conformation observed)” value is “Random Coil”, the “Activity (CD)” value is listed as “Yes” and the “Activity: active trials / trials” value was 3/3. For the same compound, at NAC peptide [3], the “Binding Strength” value is “Indeterminant”.

For `O=S(=O)(O)CCCN1CCN(Cc2ccccc2)CC1` [compound 12], at NAC peptide [2], the “CD Result (NAC conformation observed)” value was “β-turn Transition”, the “Activity (CD)” value is listed as “No” and the “Activity: active trials / trials” value is “⅓”. Further, the “Binding Strength” value on NAC peptide [3] was “++ (Moderate; when the total binding is between 120% and 70%)”.

In the case of `O=S(=O)(O)CCCCS(=O)(=O)O` [compound 1], on NAC peptide [2], the “CD Result (NAC conformation observed)” value is “Random Coil β-sheet”, the “Activity (CD)” value was “Yes” and the “Activity: active trials / trials” value is reported as “½”. The “Binding Strength” value at NAC peptide [3] is “− (None; when the total binding is between 30% and 0%)”.

For the compound `NCCOS(=O)(=O)O` [compound 3], at NAC peptide [2], the “CD Result (NAC conformation observed)” value was “β- turn/βsheet”, the “Activity (CD)” value is “No” and the “Activity: active trials / trials” value was 0/2. The “Binding Strength” value at NAC peptide [3] was “− (None; when the total binding is between 30% and 0%)”.

Consider `NCCCCS(=O)(=O)O` [compound 6], for which, at NAC peptide [2], the “CD Result (NAC conformation observed)” value is on record as “β-turn transition”, the “Activity (CD)” value is recorded as “Yes” and the “Activity: active trials / trials” value was “½”. Besides, at NAC peptide [3], the “Binding Strength” value was “+++ (Strong; when the total binding is 120% and higher)”.

On to `NCCCCS(=O)(=O)O` [compound 7], for which, at NAC peptide [2], the “CD Result (NAC conformation observed)” value is “β- turn/βsheet Random coil Transition”, the “Activity (CD)” value is reported as “Yes” and the “Activity: active trials / trials” value is listed as 2/4. For the same compound, the “Binding Strength” value on NAC peptide [3] is “++ (Moderate; when the total binding is between 120% and 70%)”.

In the case of `NCCCOS(=O)(=O)O` [compound 4], on NAC peptide [2], the “CD Result (NAC conformation observed)” value was “β-turn”, the “Activity (CD)” value was “No” and the “Activity: active trials / trials” value is listed as 0/2. For the same compound, the “Binding Strength” value on NAC peptide [3] was “++ (Moderate; when the total binding is between 120% and 70%)”.

With `O=S(=O)(O)OCCCOS(=O)(=O)O` [compound 2], at NAC peptide [2], the “CD Result (NAC conformation observed)” value was “Random Coil TRansition”, the “Activity (CD)” value is recorded as “Yes” and the “Activity: active trials / trials” value is 2/2. Moreover, the “Binding Strength” value on NAC peptide [3] was “− (None; when the total binding is between 30% and 0%)”.

In the case of `CC(C)(C)C1CCC(NCCCS(=O)(=O)O)CC1` (centres unmarked) [compound 35], on NAC peptide [2], the “CD Result (NAC conformation observed)” value was “β-turn”, the “Activity (CD)” value was “No” and the “Activity: active trials / trials” value was 0/2.

With `CC1CC(NCCCS(=O)(=O)O)CC(C)(C)C1` (centres unmarked) [compound 34], at NAC peptide [2], the “CD Result (NAC conformation observed)” value is “Random Coil β-sheet”, the “Activity (CD)” value was “Yes” and the “Activity: active trials / trials” value is “½”.

With `CCCCCCCCCCCCCCS(C)(C)CCCS(=O)(=O)O` [compound 10], on NAC peptide [2], the “CD Result (NAC conformation observed)” value is reported as “Random Coil”, the “Activity (CD)” value is reported as “Yes” and the “Activity: active trials / trials” value is 5/5. Besides, the “Binding Strength” value at NAC peptide [3] is “+ (Weak; when the total binding is between 70% and 30%)”.

As to `CC(C)(C)NCCCCS(=O)(=O)O` [compound 28], on NAC peptide [2], the “CD Result (NAC conformation observed)” value was “β-turn/β- sheet”, the “Activity (CD)” value is listed as “No” and the “Activity: active trials / trials” value is 0/3.

`O=S(=O)(O)CC(O)CNC1CCCCC1` (centres unmarked) [compound 21]: on NAC peptide [2], the “CD Result (NAC conformation observed)” value is on record as “β-sheet/β- turn Transition”, the “Activity (CD)” value is on record as “No” and the “Activity: active trials / trials” value is “⅓”.

For the origin of these results see patent US20050215562A1, “Methods for treating protein aggregation disorders” (priority 2003, published 2005).
